The values below come from paper PMC6245188, “Isolation and Characterization of Phenolic Compounds from the Leaves of Salix matsudana” (Molecules, 2008).

Like-named read-outs stand apart in the source and are kept apart here.

For one experiment, the target named is T1, COX-2 (Homo sapiens, UniProt P35354).
T1 construct: purchased Cayman Chemical (Michigan, US)
T1 sequence (P35354 18-604): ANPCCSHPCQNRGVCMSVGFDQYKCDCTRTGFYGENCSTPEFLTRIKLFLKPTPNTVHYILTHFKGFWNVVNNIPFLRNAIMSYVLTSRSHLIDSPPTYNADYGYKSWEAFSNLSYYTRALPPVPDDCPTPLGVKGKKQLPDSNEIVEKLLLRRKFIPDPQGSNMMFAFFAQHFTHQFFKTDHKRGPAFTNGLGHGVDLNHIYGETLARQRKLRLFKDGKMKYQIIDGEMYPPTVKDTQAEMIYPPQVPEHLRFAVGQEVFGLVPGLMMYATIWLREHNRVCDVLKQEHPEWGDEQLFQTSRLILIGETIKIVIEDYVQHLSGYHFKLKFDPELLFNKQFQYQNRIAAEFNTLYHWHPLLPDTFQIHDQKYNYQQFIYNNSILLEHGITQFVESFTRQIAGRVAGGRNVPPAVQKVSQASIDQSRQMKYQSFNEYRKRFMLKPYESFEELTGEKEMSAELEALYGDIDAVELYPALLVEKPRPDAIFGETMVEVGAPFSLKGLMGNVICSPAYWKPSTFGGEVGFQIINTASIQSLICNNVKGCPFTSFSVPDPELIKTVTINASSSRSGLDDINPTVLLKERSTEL
Description: Effect on cyclooxygenase-2 (PGE2 production from 14C-arachidonic acid, HPLC radioactivity detection). The settings on record: for IC50 / IC50 of COX-2: means of three determinations, 30 min at 37 °C, Tris-HCl pH 8.0, I.A. = Inactive; for inhibitory effect on COX-2 (in words): qualitative statement. It is filed as biochemical. The method, then:
(§1) COX-1 and COX-2 were purchased from Cayman Chemical (Michigan, US). The ^14C-labeled arachidonic acid (>200 µCi, NEN) was purchased from New England Nuclear Co. (Boston, US). Other chemicals and reagents were purchased from the Chinese Chemical Group (Beijing, P.R. China).
(§2) The effect of the tested compounds on cyclooxygenase-1 and -2 (COX-1 and -2) was determined by measuring PGE2 production. […] 1-^14C Arachidonic acid (10 µL) was added to start the reaction. The mixture was incubated for 30 min at 37 °C, then, the reaction was terminated by adding the reaction mixture (20 µL) to 30 µM indomethacin (200 µL). Arachidonic acid and its radio-labeled metabolites were separated and determined by reversed-phase HPLC using a Berthold radioactivity monitor. Inhibition refers to reduction of PGE2 formation, in comparison to a blank run without inhibitor. The results are means of three independent experiments.

A further experiment deals with T2, COX-1 (Ovis aries, UniProt P05979).
T2 construct: purchased Cayman Chemical (Michigan, US)
T2 sequence (P05979 25-600): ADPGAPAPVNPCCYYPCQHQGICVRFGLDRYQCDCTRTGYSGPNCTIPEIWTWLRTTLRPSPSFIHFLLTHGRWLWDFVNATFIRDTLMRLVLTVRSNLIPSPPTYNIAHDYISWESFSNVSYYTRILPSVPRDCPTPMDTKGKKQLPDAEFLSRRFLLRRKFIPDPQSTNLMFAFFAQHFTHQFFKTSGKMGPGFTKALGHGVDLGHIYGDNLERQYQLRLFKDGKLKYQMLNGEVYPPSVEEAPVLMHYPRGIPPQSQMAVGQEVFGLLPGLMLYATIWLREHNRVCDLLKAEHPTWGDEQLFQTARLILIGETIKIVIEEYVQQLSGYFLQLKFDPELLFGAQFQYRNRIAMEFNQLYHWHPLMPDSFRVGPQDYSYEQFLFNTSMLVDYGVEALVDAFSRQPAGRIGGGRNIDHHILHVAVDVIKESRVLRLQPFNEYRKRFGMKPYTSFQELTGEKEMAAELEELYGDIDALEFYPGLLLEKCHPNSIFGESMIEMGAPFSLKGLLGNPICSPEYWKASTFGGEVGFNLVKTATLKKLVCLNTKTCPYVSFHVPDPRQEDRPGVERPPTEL
The experiment in a line: Effect on cyclooxygenase-1 (PGE2 production from 14C-arachidonic acid, HPLC radioactivity detection). It is filed as biochemical. Here is the method:
as §1, §2

The mark [1] stands for this setting: means of three determinations, 30 min at 37 °C, Tris-HCl pH 8.0, I.A. = Inactive, read-out: IC50 of COX-1.
The mark [2] stands for this setting: means of three determinations, 30 min at 37 °C, Tris-HCl pH 8.0, I.A. = Inactive.

Take `CC1(C)C=Cc2c(cc(O)c3c(=O)c(OC4OC(CO)C(O)C(O)C4O)c(-c4ccc(O)c(O)c4)oc23)O1` [Compound 1, 7,8-(2'', 2''-dimethylpyrano)-5, 3', 4'-trihydroxy-flavone-3-O-β-D-glucoside]: on COX-2, the IC50 is 27.3 µM and the “inhibitory effect on COX-2 (in words)” value was “potent inhibitory effect”. Also, the IC50 at COX-1 (setting [1]) turned out to be 153 µM.

For `CC(=O)c1ccc(OC2OC(CO)C(O)C(O)C2O)cc1` (stereo not drawn) [Compound 8, piceoside], the “IC50 of COX-2” value at COX-2 was “I.A”. Also, the IC50 at COX-1 (setting [1]) is 217 µM.

Take `COc1ccc2c(=O)cc(-c3ccccc3)oc2c1` [Compound 4, 7-methoxyflavone]: the IC50 on COX-2 stood at 169 µM; at COX-1 (setting [1]) it was 99.1 µM.

For the molecule `O=c1cc(-c2ccc(O)cc2)oc2cc(O)ccc12` [Compound 6, 4',7-dihydroxyflavone], at COX-2, the IC50 was 58.8 µM and the “inhibitory effect on COX-2 (in words)” value is “potent inhibitory effect”. Further, on COX-1 (setting [2]), the “IC50 of COX-1” value is listed as “I.A”.

Regarding `O=c1c(O[C@@H]2O[C@H](CO)[C@@H](O)[C@H](O)[C@H]2O)c(-c2ccc(O)c(O)c2)oc2cc(O)cc(O)c12` [Compound 3, isoquercitrin], the IC50 at COX-1 came out at 103 µM.

In the case of `O=c1cc(-c2ccc(O)c(O)c2)oc2cc(O)cc(O)c12` [Compound 2, luteolin], at COX-2, the “IC50 of COX-2” value was “I.A”. Also, the “IC50 of COX-1” value on COX-1 (setting [2]) was “I.A.^b”.

In the case of `O=c1cc(-c2ccc(O)c(O)c2)oc2cc(O[C@@H]3O[C@H](CO)[C@@H](O)[C@H](O)[C@H]3O)cc(O)c12` [Compound 5, luteolin 7-O-glucoside], the values for the half-inhibitory concentration (IC50) on COX-2 and at COX-1 (setting [1]) were 39.1 µM and 92.3 µM, respectively. Besides, the “inhibitory effect on COX-2 (in words)” value on COX-2 is “potent inhibitory effect”.

Turning to `COc1cc(O)cc(OC)c1OC1OC(CO)C(O)C(O)C1O` (stereo not drawn) [Compound 7, leonuriside A], the IC50 at COX-2 is 200 µM; on COX-1 (setting [1]) it was 195 µM.

By IC50 is commonly meant the concentration that gives 50% inhibition.
